Data as given in article PMC8700061, “Fragment-Sized and Bidentate (Immuno)Proteasome Inhibitors Derived from Cysteine and Threonine Targeting Warheads” (Cells, 2021).

Key:
β5i subunit of human iCP [1] = biological target: T1, β5i subunit of human iCP (Homo sapiens, UniProt P20618+P28062); parameters: method as in PMID 33894528; settings: limited stability of compounds after 1 h in assay buffer; read-out: IC50 (µM) against the β5i subunit of human iCP; cited from earlier work
T1 construct: purchased Boston Biochem, Inc., Cambridge, MA, USA

β5i subunit of human iCP [2] = biological target: T1, β5i subunit of human iCP; experiment: Inhibition of β5i activity (RA at 10 µM, IC50, IC50 shift), Suc-LLVY-AMC; type: biochemical; settings: for Group efficiency (GE): ΔpIC50/ΔNheavy with compound 1 as reference; for RA (%) at 10 µM, β5i: 10 µM compound, 30 min pre-incubation, SDS activator
Experimental: Residual activity measurements were performed at 10 μM final concentrations in the assay buffer (0.01% SDS, 50 mM Tris-HCl, 0.5 mM EDTA, pH 7.4). Stock solutions of the compounds were prepared in DMSO. To 50 μL of each compound in buffer, 25 μL of 0.8 nM human iCP or human cCP (both from Boston Biochem, Inc., Cambridge, MA, USA) were added. After incubation at 37 °C for 30 min, the reaction was started by adding of 25 μL of 100 μM relevant fluorogenic substrate: acetyl-Nle-Pro-Nle-Asp-AMC (Ac-nLPnLD-AMC, (Bachem, Bubendorf, Switzerland)) for β1, acetyl-Pro-Ala-Leu-7-amino-4-methylcoumarin (Ac-PAL-AMC, (Boston Biochem, Inc., Cambridge, MA, USA)) for β1i, t-butyloxycarbonyl-Leu-Arg-Arg-7-amino-4-methylcoumarin (Boc-LRR-AMC, (Bachem, Bubendorf, Switzerland)) for β2 and β2i, succinyl-Leu-Leu-Val-Tyr-7-amino-4-methylcoumarin (Suc-LLVY-AMC) (Bachem, Bubendorf, Switzerland) for β5 and β5i. Reaction progress was recorded on BioTek Synergy HT microplate reader by monitoring fluorescence at 460 nm (λex = 360 nm) for 90 min at 37 °C. The initial linear ranges were used to calculate velocity and determine residual activity. In the case of evaluation of β1, βi, β2, and β2i activities, the assay buffer was modified by replacing SDS with the proteasomal activator PA28α (Boston Biochem, Inc., Cambridge, MA, USA).
Final assay mixtures contained 0.2 nM human iCP or 0.2 nM human cCP in assay buffer (0.01% SDS (or PA28α in cases of β1, β1i subunits), 50 mM Tris-HCl, 0.5 mM EDTA, pH 7.4). Inhibitors were dissolved in DMSO and added to the black 96-well plates for at least eight different concentrations (the final concentration of DMSO was not more than 1%). […] Fluorescence was monitored at 460 nm (λex = 360 nm) for 90 min at 37 °C. The progress of the reactions was recorded and the initial linear ranges were used to calculate the velocity. IC50 values were calculated using GraphPadPrism (GraphPad Software, San Diego, CA, USA) and are means from at least three independent determinations.

[3] = HPLC-based GSH reactivity assay; type: physicochemical; settings: 250 µM compound, 5 mM GSH, PBS pH 7.4
Experimental: (§1) GSH reactivity assay was performed as described by Petri et al.; 500 μM solution of compound (PBS buffer pH 7.4, 10% MeCN, 250 μL) with 200 μM solution of indoprofen as internal standard were added to 10 mM GSH solution (dissolved in PBS buffer, 250 μL) in a 1:1 ratio. […] The final mixture was analyzed by HPLC after 0, 1, 2, 4, 8, 12, 24, 48, and 72 h. The degradation kinetics were also studied using the method described in [24], except that pure PBS buffer was used instead of GSH solution. […] The area under the curve (AUC) values were determined by integrating the HPLC spectra and then corrected with the internal standard.

[4] = HPLC-based stability assay in PBS; type: physicochemical; settings: PBS pH 7.4
Experimental: GSH reactivity assay was performed as described by Petri et al.; 500 μM solution of compound (PBS buffer pH 7.4, 10% MeCN, 250 μL) with 200 μM solution of indoprofen as internal standard were added to 10 mM GSH solution (dissolved in PBS buffer, 250 μL) in a 1:1 ratio. The final concentration was 250 μM compound, 100 μM indoprofen, 5 mM GSH and 5% MeCN (500 μL). The final mixture was analyzed by HPLC after 0, 1, 2, 4, 8, 12, 24, 48, and 72 h. The degradation kinetics were also studied using the method described in [24], except that pure PBS buffer was used instead of GSH solution. In this experiment, the final concentration of the mixture was 250 μM fragment, 100 μM indoprofen and 5% MeCN. The area under the curve (AUC) values were determined by integrating the HPLC spectra and then corrected with the internal standard.

β5 subunit of human cCP = biological target: T2, β5 subunit of human cCP (Homo sapiens, UniProt P20618+P28074); experiment: Inhibition of β5 activity (RA, IC50), Suc-LLVY-AMC; type: biochemical
T2 construct: purchased Boston Biochem, Inc., Cambridge, MA, USA

human iCP (β5i) = biological target: T3, human iCP (β5i) (Homo sapiens, UniProt P20618+P28062); experiment: Screening of heterocyclic electrophilic compounds at 500 µM (β5i); type: biochemical; settings: 30 min incubation
T3 construct: purchased Boston Biochem, Inc., Cambridge, MA, USA
Experimental: Screening of heterocyclic electrophilic compounds was performed at concentration of 500 µM in assay buffer (0.01% SDS, 50 mM Tris-HCl, 0.5 mM EDTA, pH 7.4). To 50 µL of each compound in buffer, 25 µL of 0.8 nM human iCP (Boston Biochem, Inc., Cambridge, MA, USA) was added. After 30 min incubation at 37 °C, the reaction was started by adding of 25 µL of […] Suc-LLVY-AMC (Bachem, Bubendorf, Switzerland), final concentration 25 µM). The reaction progress was recorded on BioTek Synergy HT microplate reader by monitoring fluorescence at 460 nm (λex = 360 nm) for 90 min at 37 °C. The initial linear ranges were used to calculate the velocity and determine the residual activity.

[5] = UV-Vis-based stability assay in buffer; type: physicochemical; settings: after 1 h, assay buffer pH 7.4, 37 °C, 50 µM
Experimental: The aqueous stability of all compounds was determined spectrophotometrically by following the changes in the absorption spectra of the compounds. The buffer solution (50 mM Tris-HCl, 0.5 mM EDTA, pH 7.4) was pre-incubated at 37 °C. Aliquots of the compounds studied (1 mM in DMSO) were transferred to a 96-well flat-bottom UV-transparent microplate (Corning, CLS3635, Corning Inc, Corning, NY, USA) containing the buffer solution to obtain a 50 μM solution containing 5% DMSO (final volume, 300 μL). The plate was incubated without lid at 37 °C in a plate reader (Synergy H4, BioTek Instruments, Inc., Santa Clara, CA, USA) and the absorbance spectrum (244–400 nm) was acquired in sweep mode after 0, 15, 30, 60, 120, 180, and 240 min using a discontinuous kinetic procedure in Gen5 software (BioTek Instruments, Inc., Santa Clara, CA, USA). The time required to read the entire plate was 3 min. To determine the baseline, the compound solution was replaced with pure DMSO and subtracted from each reading. Compounds with an absorbance maximum of less than 0.20 AU were not evaluated using these assays due to the high experimental error. For other compounds, the relative absorbance difference between the first time point and 60 min at the most responsive wavelength was calculated. If the relative absorbance difference for the compound in the buffer was below 0.1, between 0.1–0.2, and above 0.2, the compound was classified as stable, intermediate, and unstable, respectively.

GSH = experiment: HPLC-based GSH reactivity assay; type: physicochemical; settings: 5 mM glutathione (GSH) in PBS buffer; 250 µM compound, 5 mM GSH, PBS pH 7.4; read-out: Reactivity with GSH (HPLC-based assay), t1/2
Experimental: as §1

Group efficiency (GE) (β5i subunit of human iCP [2]) | Structure (SMILES) | IC50 (β5i subunit of human iCP [1]) | Stability in Buffer (HPLC-based assay) [4] | other results
0.09 | N#Cc1nc2cc(Cl)ccc2o1 [Compound 2] | 67 ± 11 µM | – | –
0.92 | N#Cc1nc2cccc(Cl)c2o1 [Compound 4] | 10 ± 4.6 µM | – | –
– | Cc1ccc2nc(C#N)oc2c1 [Compound 5] | – | low absorbance ^c/stable ^d | RA (%) at 10 µM, β5i (β5i subunit of human iCP [2]): 81 ± 4%; Reactivity with GSH (HPLC-based assay), t1/2 [3]: < 3 min
– | CC(C)C[C@H](NC(=O)[C@H](CCc1ccccc1)NC(=O)CN1CCOCC1)C(=O)N[C@@H](Cc1ccccc1)C(=O)N[C@@H](CC(C)C)C(=O)[C@@]1(C)CO1 [carfilzomib] | – | – | β5 RA at 10 nM (control) (β5 subunit of human cCP): 25 ± 1%
– | C=Cc1nccs1 [XXI, 2-vinylthiazole] | – | – | RA at 500 µM [%] (β5i) (human iCP (β5i)): 5 ± 3%
– | N#Cc1nc2ccccc2o1 [Compound 1, benzoxazole-2-carbonitrile] | 83 ± 6 µM | – | –
– | N#Cc1nc2ccc(N)cc2o1 [Compound 22] | – | stable ^c,d | Stability in Buffer (UV-Vis-based assay) [5]: stable ^c,d (relative absorbance difference for the compound in the buffer was below 0.1); Reactivity with GSH (HPLC-based assay), t1/2 [3]: < 3 min
0.96 | N#Cc1nc2ccc(Cl)cc2o1 [Compound 3] | 9.1 ± 4.5 µM | – | –
0.01 | COc1ccc2oc(C#N)nc2c1 [Compound 7] | – | stable ^c,d | Stability in Buffer (UV-Vis-based assay) [5]: stable ^c,d (relative absorbance difference for the compound in the buffer was below 0.1); RA (%) at 10 µM, β5i (β5i subunit of human iCP [2]): 84 ± 11%; RA (%) at 10 µM, β5i (β5i subunit of human iCP [2]; listed as 5-OMe): 84%; half-life at 250 µM (GSH): < 3 min
